Test results reported in PMC12209172, “Poly(ADP-ribose)polymerase 2 is zinc-dependent enzyme and nucleosome reorganizer” (Cellular and Molecular Life Sciences: CMLS, 2025).

Tests used:
[1] = target: T1, WGR domain-nucleosome complexes (Homo sapiens, UniProt Q9UGN5); test: spFRET microscopy of WGR domain-nucleosome complexes; conditions: Np nucleosomes, WGR domain plus 2 mM Zn2+
T1 construct: WGR domain of PARP2 (residues 77–220) into pET-15b-TEV expression vector; 6xHis (pET-15b-TEV) (N, cleaved yes); made in house; host or cells: Escherichia coli Rosetta2 (DE3) pLysS (WGR)
Protocol: In the study of nucleosome-PARP2 interactions, nucleosomes (1–2 nM) were incubated with PARP2 (12.5–200 nM) in buffer A (50 mM Tris-HCl pH 7.5; 40 mM NaCl; 0.5 mM β-mercaptoethanol (β-ME); 0.1% NP40) at 25 °C for 30 min. When indicated, buffer A was supplemented with 50 µM – 5 mM ZnCl2, 5 mM CaCl2 or 5 mM MgCl2. To study the stability of Zn^2+-PARP2-nucleosome complexes, PARP2-nucleosome complexes that have been formed for 30 min in buffer A containing 50 nM PARP2 and 0.15 mM Zn^2+ ions were mixed with EDTA (10 mM) and incubated for 15 min. In the studies of PARylation, NAD+ (0.5–10 µM) was mixed with nucleosomes (1–2 nM) and PARP2 (100 nM) in buffer A and incubated for 45 min at 25 °C.
spFRET measurements in solution were performed as described previously. Each measured single nucleosome was characterized by FRET between Cy3 and Cy5 labels calculated as a proximity ratio (EPR):1 [drawing 1]
Where I3 and I5 are fluorescence intensities of Cy3 and Cy5, respectively, and coefficients 0.19 and 0.81 provide correction for the spectral cross-talk between Cy3 and Cy5 detection channels. […] Relative frequency distributions of nucleosomes by EPR values, i.e. EPR profiles, (2000–5000 nucleosomes per experiment; 3 independent experiments) were plotted and further analyzed as a superposition of several normal (Gaussian) distributions for nucleosomes or nucleosome-PARP2 complexes. […]

[2] = target: T2, PARP2-nucleosome complexes (Mus musculus, UniProt O88554); test: spFRET microscopy in solution of nucleosomes and PARP2-nucleosome complexes; conditions: for EPR centre of the structural state of nucleosomes: PARP2 plus 0.3 mM Zn2+
T2 construct: Recombinant mouse full-length PARP2 was obtained in the baculovirus expression system; made in house; host or cells: PARP2: Sf9 insect cells (baculovirus), gift of Prof; O. Lavrik; nucleosomes assembled in house
Protocol: In the study of nucleosome-PARP2 interactions, nucleosomes (1-2 nM) were incubated with PARP2 (12.5-200 nM) in buffer A (50 mM Tris-HCl pH 7.5; 40 mM NaCl; 0.5 mM β-mercaptoethanol (β-ME); 0.1% NP40) at 25 °C for 30 min. When indicated, buffer A was supplemented with 50 μM - 5 mM ZnCl2, 5 mM CaCl2 or 5 mM MgCl2. […] […] measurements in solution were performed as described previously. Each measured single nucleosome was characterized by FRET between Cy3 and Cy5 labels calculated as a proximity ratio (EPR):1 [drawing 1] Where I3 and I5 are fluorescence intensities of Cy3 and Cy5, respectively, and coefficients 0.19 and 0.81 provide correction for the spectral cross-talk between Cy3 and Cy5 detection channels. EPR is a FRET efficiency not corrected for quantum yields of labels and an instrumentation factor. Relative frequency distributions of nucleosomes by EPR values, i.e. EPR profiles, (2000-5000 nucleosomes per experiment; 3 independent experiments) were plotted and further analyzed as a superposition of several normal (Gaussian) distributions for nucleosomes or nucleosome-PARP2 complexes. Since nucleosomes tend to aggregate when PARP2 is added (especially at high concentrations), treatment of signals measured from nucleosomes and their complexes included mandatory rejection of signals from any aggregates that are clearly recognized due to their slow diffusion rate and/or abnormally high fluorescence intensity.

[Cl-].[Cl-].[Zn+2] [Zn2+, ZnCl2]
EPR maximum of the new peak in the EPR profile [1]: 0.4
effect of ions on the nucleosome structure ([2]; NP nucleosomes without PARP2, 5 mM ions): minimally affect
EPR centre of the new peak in the EPR profile ([2]; NP nucleosomes, PARP2 plus Zn2+): 0.4
EPR centre of the structural state of nucleosomes ([2]; Nd nucleosomes): 0.5
EPR centre of the structural state of nucleosomes ([2]; Nm nucleosomes): 0.4
Zn2+ concentration above which the structure of PARP2-nucleosome complexes is affected ([2]; PARP2 50 nM, NP nucleosomes): higher than 75 µM
Zn2+ concentration at which all the complexes are converted to the altered conformation ([2]; PARP2 50 nM, NP nucleosomes): 150 µM
effect of ions on the structure of nucleosomes in PARP2-nucleosome complexes ([2]; PARP2 50 nM, Zn2+ 0.3 mM, Ca2+ 5 mM or Mg2+ 5 mM): induce alterations in the structure of PARP2-nucleosome complexes
effect of Zn2+ on the affinity of PARP2 to nucleosomes ([2]; compared with EMSA in the absence of Zn2+): not significantly affected
